Here are results for 4 substances from patent US7763281B2, “Antihypertensive peptide and use thereof” (Da-Yeh University, priority 2007, dated 2010).

The test system of data set [1] is spontaneously hypertensive rats (SHRs). The experiment in a line: Change of SBP and DBP in SHRs by tail-cuff method after single oral administration. The class given is in vivo, rat. The settings on record: single oral dose 1 mg/kg BW. As for the experimental part:
Therefore, the antihypertensive activity of the aforementioned supernatant powder of the fermented dairy product were measured in SHRs and normotensive rats (Wistar-Kyoto rats, WKYs) to evaluate its potential applications to functional food for preventing hypertension. The male SHRs and male WKYs used in the present and following examples were purchased from National Laboratory Animal Center (Taipei, Taiwan) and fed with laboratory chow (Rodent laboratory chow 5001, Purina Co., USA). Blood pressures including SBP and DBP of 8- to 18-wk-old SHRs (body weight, 330-360 g) and 8- to 18-wk-old WKYs (body weight, 350-380 g) were measured by the tail-cuff method employing a tail-cuff detection system (Softron BP16; Softron, Tokyo, Japan). The antihypertensive activities of the test samples were evaluated by measuring the changes in SBP and DBP of SHRs and WKYs during 0-10 h after oral administration of respective samples.

Data set [2] shares this test system. The settings on record: cited from earlier work.
Data set [3] is classed as in vitro ADME. As for the experimental part:
Briefly, the peptide was digested with a pepsin solution (pH 2.5) (EC 3.4.23.1; 1:10000; Sigma, USA) for 1.5 h at 37° C., followed by digestion with Corolase PP (pH 7.5) (pancreatic protease; Rohm, Darmstadt, German) for 2.5 h at 37° C. To remove the enzyme added, the digested peptide solution was filtered through a 3 kDa cut-off centrifugal filter (Microcon YM-3, 3 kDa NMWL, Millipore Co., USA) by centrifugation at 1,000×g for 10 min. The filtrate was then used in the analysis for peptide fragments by MALDI-TOF-MS (matrix-assisted laser desorption ionization-time of flight mass spectrometry).

Where two headings read alike, the source gives them in different places. Ends that are not written are not given here.

“KVLPVP [known peptide from casein hydrolysate (Maeno et al., 1996), synthetic comparator]”: in data set [1] (at 2 h), the “maximal decrease in SBP” value was found to be 27.8±3.3 mmHg. Besides, the “maximal decrease in DBP” value in data set [1] (at 5 h) is reported as 17.5±4.2 mmHg.
For “KVLPVPQ [known peptide from casein hydrolysate (Maeno et al., 1996), synthetic comparator]”, the “decrease of SBP” value in data set [2] (single oral administration of 2 mg/kg BW, at 6 h (Maeno et al., 1996)) is 31.5±5.6 mmHg. Moreover, in data set [1] (at 3 h), the “maximal decrease in SBP” value was determined as 29.2±4.0 mmHg. In addition, the “maximal DBP decrease” value in data set [1] (at 4 h) is reported as 14.4±3.2 mmHg.
Regarding “Val-Pro-Pro (VPP; Peptide derived from casein) [tripeptide derived from β-casein, synthesized and tested as positive control]”, in data set [2] (dose 1.6 mg/kg BW, at 6 h after oral administration (Nakamura et al., 1995)), the “decrease of SBP” value is given as 20 mmHg. For the same substance, in data set [1] (at 4 h), the “maximal DBP decrease” value amounted to 18.0±2.1 mmHg and the “maximal SBP decrease” value is given as 26.3±3.2 mmHg.
Take “VLSLSQPKVLPVPQKAVPQ [Val-Leu-Ser-Leu-Ser-Gln-Pro-Lys-Val-Leu-Pro-Val-Pro-Gln-Lys-Ala-Val-Pro-Gln]”: the “peptide fragments after simulated gastro-intestinal digestion” value in data set [3] is given as “did not contain Lys-Val-Leu-Pro-Val-Pro (SEQ ID NO: 3) or Lys-Val-Leu-Pro-Val-Pro-Gln (SEQ ID NO: 4)”.
